Data reported in ChEMBL document CHEMBL3400130, “Identification of apoptosis signal-regulating kinase 1 (ASK1) inhibitors among the derivatives of benzothiazol-2-yl-3-hydroxy-5-phenyl-1,5-dihydro-pyrrol-2-one” (Bioorg Med Chem, 2015).

What was measured:
[1] = molecular target: T1, Mitogen-activated protein kinase kinase kinase 5 (Homo sapiens, UniProt Q99683); experiment: Inhibition of recombinant ASK1 catalytic subunit (unknown origin) using MBP substrate and gamma-labeled 32P ATP incubated for 20 mins by liquid scintillation counting method
T1 sequence (Q99683 whole entry): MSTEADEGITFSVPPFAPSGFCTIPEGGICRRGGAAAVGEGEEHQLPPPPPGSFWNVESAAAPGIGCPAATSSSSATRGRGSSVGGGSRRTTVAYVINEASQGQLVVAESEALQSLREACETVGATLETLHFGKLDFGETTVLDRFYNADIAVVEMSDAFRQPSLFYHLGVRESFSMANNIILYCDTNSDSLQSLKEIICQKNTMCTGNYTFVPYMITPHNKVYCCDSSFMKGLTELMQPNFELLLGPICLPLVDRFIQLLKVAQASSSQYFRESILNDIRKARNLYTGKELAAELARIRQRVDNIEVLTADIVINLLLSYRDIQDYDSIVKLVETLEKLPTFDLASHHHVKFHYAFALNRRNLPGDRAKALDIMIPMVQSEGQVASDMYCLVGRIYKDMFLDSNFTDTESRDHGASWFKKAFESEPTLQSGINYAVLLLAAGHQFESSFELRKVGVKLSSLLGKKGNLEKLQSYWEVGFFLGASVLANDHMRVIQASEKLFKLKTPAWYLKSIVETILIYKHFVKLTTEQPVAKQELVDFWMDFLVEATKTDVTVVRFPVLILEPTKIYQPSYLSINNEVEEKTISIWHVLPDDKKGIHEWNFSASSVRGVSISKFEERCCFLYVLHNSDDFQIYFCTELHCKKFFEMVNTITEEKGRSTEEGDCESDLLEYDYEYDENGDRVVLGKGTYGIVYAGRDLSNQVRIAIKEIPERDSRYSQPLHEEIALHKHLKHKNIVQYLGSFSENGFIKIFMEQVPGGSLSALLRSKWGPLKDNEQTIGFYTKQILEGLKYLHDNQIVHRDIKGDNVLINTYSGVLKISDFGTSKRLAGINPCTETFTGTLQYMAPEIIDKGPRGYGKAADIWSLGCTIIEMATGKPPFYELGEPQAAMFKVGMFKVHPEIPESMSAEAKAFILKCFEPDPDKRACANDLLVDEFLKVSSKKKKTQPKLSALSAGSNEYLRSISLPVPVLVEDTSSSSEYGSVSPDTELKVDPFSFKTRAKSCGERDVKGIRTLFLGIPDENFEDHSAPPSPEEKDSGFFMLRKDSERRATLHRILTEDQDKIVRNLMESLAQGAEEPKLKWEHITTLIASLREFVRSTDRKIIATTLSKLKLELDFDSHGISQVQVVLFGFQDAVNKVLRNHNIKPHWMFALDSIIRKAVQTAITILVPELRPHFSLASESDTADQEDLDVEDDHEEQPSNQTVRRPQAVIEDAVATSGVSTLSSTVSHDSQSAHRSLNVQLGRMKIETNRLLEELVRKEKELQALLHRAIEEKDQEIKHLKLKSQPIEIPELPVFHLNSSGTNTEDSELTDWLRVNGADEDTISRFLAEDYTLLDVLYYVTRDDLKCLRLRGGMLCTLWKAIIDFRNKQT

[2] = molecular target: T2, Mitogen-activated protein kinase kinase kinase 5 (Homo sapiens) (UniProt Q99683); experiment: Inhibition of recombinant ASK1 catalytic subunit (unknown origin) assessed as residual enzyme activity at 10 uM using MBP substrate and gamma-labeled 32P ATP incubated for 20 mins by liquid scintillation counting method
T2 sequence (whole entry): T1 sequence (Q99683 whole entry)

[3] = molecular target: Mitogen-activated protein kinase 10 (Homo sapiens) (UniProt P53779); experiment: Inhibition of JNK3 (unknown origin) assessed as residual enzyme activity at 10 uM using JNK3tide substrate
Mitogen-activated protein kinase 10 (Homo sapiens), sequence (P53779 whole entry): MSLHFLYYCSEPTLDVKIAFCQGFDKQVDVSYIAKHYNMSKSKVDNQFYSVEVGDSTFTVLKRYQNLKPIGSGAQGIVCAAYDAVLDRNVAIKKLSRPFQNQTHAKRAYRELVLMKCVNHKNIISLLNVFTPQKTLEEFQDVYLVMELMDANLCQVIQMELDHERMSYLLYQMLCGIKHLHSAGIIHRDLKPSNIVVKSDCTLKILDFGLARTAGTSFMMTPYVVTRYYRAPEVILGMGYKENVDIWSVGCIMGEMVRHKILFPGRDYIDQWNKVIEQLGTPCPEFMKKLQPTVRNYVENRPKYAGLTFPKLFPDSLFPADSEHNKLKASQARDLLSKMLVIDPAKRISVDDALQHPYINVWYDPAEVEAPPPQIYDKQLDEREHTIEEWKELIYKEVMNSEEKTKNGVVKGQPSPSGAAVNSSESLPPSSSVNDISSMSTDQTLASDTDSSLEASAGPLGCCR

[4] = molecular target: T3, Aurora kinase A (Homo sapiens) (UniProt O14965); experiment: Inhibition of Aurora A (unknown origin) assessed as residual enzyme activity at 10 uM using kemptide substrate
T3 sequence (whole entry): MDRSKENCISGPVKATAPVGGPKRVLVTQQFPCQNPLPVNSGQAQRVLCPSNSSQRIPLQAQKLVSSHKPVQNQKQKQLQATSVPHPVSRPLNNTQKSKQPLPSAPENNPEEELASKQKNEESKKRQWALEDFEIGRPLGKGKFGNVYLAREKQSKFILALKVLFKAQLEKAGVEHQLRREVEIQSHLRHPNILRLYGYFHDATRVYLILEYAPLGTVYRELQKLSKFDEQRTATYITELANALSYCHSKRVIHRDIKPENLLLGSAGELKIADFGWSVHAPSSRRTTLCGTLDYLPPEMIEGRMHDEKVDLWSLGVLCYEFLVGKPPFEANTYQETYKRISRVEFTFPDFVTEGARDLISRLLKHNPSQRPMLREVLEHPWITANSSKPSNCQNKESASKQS

[5] = molecular target: Angiopoietin-1 receptor (Homo sapiens) (UniProt Q02763); experiment: Inhibition of Tie2 (unknown origin) assessed as residual enzyme activity at 10 uM using TK Substrate 2 (poly Glu-Tyr) substrate
Angiopoietin-1 receptor (Homo sapiens), sequence (Q02763 whole entry): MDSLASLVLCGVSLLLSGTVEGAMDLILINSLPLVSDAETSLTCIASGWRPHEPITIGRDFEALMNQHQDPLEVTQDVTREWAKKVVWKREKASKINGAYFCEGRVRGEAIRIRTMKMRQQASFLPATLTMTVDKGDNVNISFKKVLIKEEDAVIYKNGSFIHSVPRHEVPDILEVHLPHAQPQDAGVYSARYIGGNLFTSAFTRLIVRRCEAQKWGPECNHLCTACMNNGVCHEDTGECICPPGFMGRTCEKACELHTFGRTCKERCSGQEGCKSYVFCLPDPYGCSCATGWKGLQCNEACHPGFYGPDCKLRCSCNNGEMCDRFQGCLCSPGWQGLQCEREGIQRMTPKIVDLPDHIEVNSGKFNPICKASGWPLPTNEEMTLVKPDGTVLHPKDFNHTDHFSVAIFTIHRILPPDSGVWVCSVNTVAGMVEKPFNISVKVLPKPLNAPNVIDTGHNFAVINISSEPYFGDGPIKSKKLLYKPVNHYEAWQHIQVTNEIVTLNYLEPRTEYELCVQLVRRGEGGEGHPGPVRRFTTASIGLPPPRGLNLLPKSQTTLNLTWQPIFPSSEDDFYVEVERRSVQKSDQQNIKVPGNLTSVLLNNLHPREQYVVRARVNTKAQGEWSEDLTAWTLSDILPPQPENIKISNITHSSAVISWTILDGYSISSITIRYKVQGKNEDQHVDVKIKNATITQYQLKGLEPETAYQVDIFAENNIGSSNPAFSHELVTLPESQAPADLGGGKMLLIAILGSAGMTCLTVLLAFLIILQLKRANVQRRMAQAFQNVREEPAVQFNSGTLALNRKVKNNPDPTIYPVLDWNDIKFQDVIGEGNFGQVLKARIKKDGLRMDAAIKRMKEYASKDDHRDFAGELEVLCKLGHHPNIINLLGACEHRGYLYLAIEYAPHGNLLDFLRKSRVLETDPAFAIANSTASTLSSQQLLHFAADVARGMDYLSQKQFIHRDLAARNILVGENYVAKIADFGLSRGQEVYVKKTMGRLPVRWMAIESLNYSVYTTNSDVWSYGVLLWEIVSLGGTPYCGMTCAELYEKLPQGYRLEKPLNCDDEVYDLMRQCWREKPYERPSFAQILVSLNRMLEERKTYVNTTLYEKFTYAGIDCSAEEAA

[6] = molecular target: Casein kinase II (Homo sapiens) (UniProt P67870+P68400+P19784); experiment: Inhibition of CK2 (unknown origin) assessed as residual enzyme activity at 10 uM using RRRDDDSDDD substrate peptide; assay type: protein-complex assay
[7] = molecular target: Fibroblast growth factor receptor 1 (Homo sapiens) (UniProt P11362); experiment: Inhibition of FGFR1 (unknown origin) assessed as residual enzyme activity at 10 uM using IGF-IRtide (12 to 527) substrate
Fibroblast growth factor receptor 1 (Homo sapiens), sequence (P11362 22-822 limits assumed): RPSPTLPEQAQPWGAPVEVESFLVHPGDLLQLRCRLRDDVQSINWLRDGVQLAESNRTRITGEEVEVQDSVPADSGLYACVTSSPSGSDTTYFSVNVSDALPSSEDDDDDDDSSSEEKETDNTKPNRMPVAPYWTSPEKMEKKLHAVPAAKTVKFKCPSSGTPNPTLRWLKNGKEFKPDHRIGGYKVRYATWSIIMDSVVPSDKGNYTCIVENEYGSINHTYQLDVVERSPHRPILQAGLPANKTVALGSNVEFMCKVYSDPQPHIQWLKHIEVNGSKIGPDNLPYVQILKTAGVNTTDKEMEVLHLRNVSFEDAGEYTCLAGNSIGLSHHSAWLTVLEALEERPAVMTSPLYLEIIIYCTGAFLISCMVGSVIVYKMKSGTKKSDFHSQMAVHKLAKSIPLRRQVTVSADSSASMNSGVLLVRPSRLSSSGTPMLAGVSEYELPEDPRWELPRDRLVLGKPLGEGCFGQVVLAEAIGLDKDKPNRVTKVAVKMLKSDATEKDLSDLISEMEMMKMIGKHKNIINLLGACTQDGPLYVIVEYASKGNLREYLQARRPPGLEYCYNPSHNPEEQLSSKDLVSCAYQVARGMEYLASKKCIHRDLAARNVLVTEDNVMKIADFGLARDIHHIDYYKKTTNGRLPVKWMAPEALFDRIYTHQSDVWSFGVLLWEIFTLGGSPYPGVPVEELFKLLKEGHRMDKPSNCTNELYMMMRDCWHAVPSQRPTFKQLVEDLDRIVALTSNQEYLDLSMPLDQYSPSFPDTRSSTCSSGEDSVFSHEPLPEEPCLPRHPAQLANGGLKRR

| Structure (SMILES) | IC50 [1] [µM] | Activity [2] [%] | Activity [3] [%] | Activity [4] [%] | Activity [5] [%] | Activity [6] [%] | Activity [7] [%] |
| --- | --- | --- | --- | --- | --- | --- | --- |
| CCCCOc1ccc(C2C(C(=O)c3ccc4c(c3)OCCO4)=C(O)C(=O)N2c2nc3ccc(Cl)cc3s2)cc1 (stereo not drawn) | 5.2 | 15.8 | 100 | 35.2 | 100 | 99.3 | 36.2 |
| Cc1ccc2nc(N3C(=O)C(O)=C(C(=O)c4ccco4)C3c3cccc(Br)c3)sc2c1 (stereo not drawn) | 31 | – | – | – | – | – | – |
| O=C(C1=C(O)C(=O)N(c2nc3ccc(F)cc3s2)C1c1cccc(Br)c1)c1ccco1 (stereo not drawn) | 29.5 | – | – | – | – | – | – |
| CCOc1ccc(C2C(C(=O)c3cccs3)=C(O)C(=O)N2c2nc3ccc(C)cc3s2)cc1 (stereo not drawn) | 9.1 | – | – | – | – | – | – |
| Cc1ccc2nc(N3C(=O)C(O)=C(C(=O)c4ccco4)C3c3ccc(Br)cc3)sc2c1 (stereo not drawn) | 28.2 | – | – | – | – | – | – |
| CCCCCOc1ccc(C2C(C(=O)c3ccc4c(c3)OCCO4)=C(O)C(=O)N2c2nc3ccc(C)cc3s2)cc1 (stereo not drawn) | 5.2 | 13.2 | 92.5 | 28.1 | 59.9 | 90 | 25.5 |
| Cc1cc(C)c2nc(N3C(=O)C(O)=C(C(=O)c4ccco4)C3c3ccccc3)sc2c1 (stereo not drawn) | 63 | – | – | – | – | – | – |
| O=C(C1=C(O)C(=O)N(c2nc3ccc(F)cc3s2)C1c1ccc(Br)cc1)c1ccco1 (stereo not drawn) | 28.2 | – | – | – | – | – | – |
| COc1ccc(C(=O)C2=C(O)C(=O)N(c3nc4ccc(F)cc4s3)C2c2cccc(F)c2)cc1 (stereo not drawn) | 17 | – | – | – | – | – | – |
| CCOc1ccc(C(=O)C2=C(O)C(=O)N(c3nc4ccc(C)cc4s3)C2c2ccc(F)cc2)cc1 (stereo not drawn) | 5.5 | – | – | – | – | – | – |
| Cc1ccc2nc(N3C(=O)C(O)=C(C(=O)c4ccco4)C3c3ccc(Cl)cc3)sc2c1 (stereo not drawn) | 30.2 | – | – | – | – | – | – |
| Cc1cc(C)c2nc(N3C(=O)C(O)=C(C(=O)c4ccc(Cl)cc4)C3c3ccc(C(C)C)cc3)sc2c1 (stereo not drawn) | 6.3 | – | – | – | – | – | – |
| COc1ccc(C2C(C(=O)c3ccc(C)o3)=C(O)C(=O)N2c2nc3ccc(C)cc3s2)cc1OC (stereo not drawn) | 38 | – | – | – | – | – | – |
| COc1ccccc1C1C(C(=O)c2ccc(C)o2)=C(O)C(=O)N1c1nc2c(C)cc(C)cc2s1 (stereo not drawn) | 35.5 | – | – | – | – | – | – |
| Cc1ccc(C(=O)C2=C(O)C(=O)N(c3nc4ccc(F)cc4s3)C2c2ccc(C(C)(C)C)cc2)cc1 (stereo not drawn) | 7.6 | – | – | – | – | – | – |
| O=C(C1=C(O)C(=O)N(c2nc3ccc(F)cc3s2)C1c1cccc(Cl)c1)c1ccco1 (stereo not drawn) | 28.2 | – | – | – | – | – | – |
| O=C(C1=C(O)C(=O)N(c2nc3ccc(F)cc3s2)C1c1cccc(F)c1)c1ccco1 (stereo not drawn) | 42.6 | – | – | – | – | – | – |

These reach a lower IC50 [1]. Values come first.

| IC50 [1] [µM] | Activity [2] [%] | Activity [3] [%] | Activity [4] [%] | Activity [5] [%] | Activity [6] [%] | Activity [7] [%] | Structure (SMILES) |
| --- | --- | --- | --- | --- | --- | --- | --- |
| 5 | – | – | – | – | – | – | CCOc1ccc2nc(N3C(=O)C(O)=C(C(=O)c4ccccc4)C3c3ccc(C(C)(C)C)cc3)sc2c1 (stereo not drawn) |
| 5 | – | – | – | – | – | – | CCCOc1ccc(C2C(C(=O)c3ccc4c(c3)OCCO4)=C(O)C(=O)N2c2nc3ccc(Cl)cc3s2)cc1 (stereo not drawn) |
| 4.6 | 19.8 | 100 | 20.5 | 94.2 | 85.6 | 58.1 | CCCCOc1ccc(C2C(C(=O)c3ccc4c(c3)OCCO4)=C(O)C(=O)N2c2nc3ccc(C)cc3s2)cc1 (stereo not drawn) |
| 4.5 | 27.6 | 89.9 | 28.1 | 63.5 | 71.5 | 74.4 | O=C(C1=C(O)C(=O)N(c2nc3ccc(F)cc3s2)C1c1cccc(Cl)c1)c1cccs1 (stereo not drawn) |
| 4.4 | – | – | – | – | – | – | Cc1ccc(C(=O)C2=C(O)C(=O)N(c3nc4ccc(C)cc4s3)C2c2ccc(C(C)(C)C)cc2)cc1 (stereo not drawn) |
| 4.4 | 27 | 100 | 45.4 | 83.2 | 79.9 | 88.7 | CCOc1ccc2nc(N3C(=O)C(O)=C(C(=O)c4cccs4)C3c3ccc(C)cc3)sc2c1 (stereo not drawn) |
| 4.2 | 16.2 | 100 | 36.5 | 62.8 | 79.3 | 65.7 | CCOc1ccc2nc(N3C(=O)C(O)=C(C(=O)c4ccccc4)C3c3ccc(Cl)cc3)sc2c1 (stereo not drawn) |
| 4.2 | 39.1 | 96.8 | 48.1 | 66.4 | 73.9 | 46.4 | COc1ccc2nc(N3C(=O)C(O)=C(C(=O)c4ccco4)C3c3ccc(Cl)cc3)sc2c1 (stereo not drawn) |
| 3.6 | 19.7 | 100 | 28.8 | 78.8 | 89.7 | 18 | CCCCOc1ccc(C2C(C(=O)c3ccc4c(c3)OCCO4)=C(O)C(=O)N2c2nc3ccc(Cl)cc3s2)cc1OCC (stereo not drawn) |
| 2.9 | – | – | – | – | – | – | Cc1ccc2nc(N3C(=O)C(O)=C(C(=O)c4ccc(F)cc4)C3c3ccc(Cl)cc3)sc2c1 (stereo not drawn) |
| 2.5 | 12.3 | 100 | 52.9 | 92.5 | 83.6 | 46.8 | CC(C)(C)c1ccc(C2C(C(=O)c3ccc4c(c3)OCCO4)=C(O)C(=O)N2c2nc3ccc(Cl)cc3s2)cc1 (stereo not drawn) |
| 2 | 23.5 | 100 | 52 | 100 | 97.8 | 40.3 | CCOc1ccc2nc(N3C(=O)C(O)=C(C(=O)c4ccc(C)cc4)C3c3ccc(C(C)(C)C)cc3)sc2c1 (stereo not drawn) |
| 2 | 43 | 80 | 49.5 | 99.2 | 81.8 | 22.6 | CCCOc1ccc(C2C(C(=O)c3ccc4c(c3)OCCO4)=C(O)C(=O)N2c2nc3ccc(C)cc3s2)cc1 (stereo not drawn) |
| 2 | – | – | – | – | – | – | Cc1cc(C)c2nc(N3C(=O)C(O)=C(C(=O)c4ccc(C)o4)C3c3ccc(C(C)C)cc3)sc2c1 (stereo not drawn) |
| 1.55 | 32.6 | 100 | 100 | 100 | 68.3 | 92.7 | Cc1ccc(C(=O)C2=C(O)C(=O)N(c3nc4ccc(F)cc4s3)C2c2ccc(C(C)(C)C)cc2)o1 (stereo not drawn) |
| 0.75 | 18.1 | 100 | 28.4 | 68.4 | 92.6 | 26.9 | CCCCCOc1ccc(C2C(C(=O)c3ccc4c(c3)CC(C)O4)=C(O)C(=O)N2c2nc3ccc(F)cc3s2)cc1 (stereo not drawn) |
| 0.52 | 14 | 100 | 44.7 | 100 | 83.4 | 100 | CC(C)CCOc1cccc(C2C(C(=O)c3ccc4c(c3)CC(C)O4)=C(O)C(=O)N2c2nc3ccc(F)cc3s2)c1 (stereo not drawn) |
